Data from patent publication US10017533B2, “Cytotoxic titanium and vanadium complexes” (YISSUM RESEARCH DEVELOPMENT COMPANY OF THE HEBREW …, priority 2012, dated 2018).

Legend:
HT-29 cancer cells = experiment: MTT cytotoxicity assay on HT-29 colon cells; type: cell-based, human; conditions: for IC50 / maximal inhibition HT-29: three days incubation
Protocol: (§1) Cytotoxicity was measured on HT-29 colon and OVCAR ovarian cells obtained from ATCC Inc. using the methylthiazolyldiphenyl-tetrazolium bromide (MTT) assay. Cells (0.6×106) in medium (contains: 1% penicillin/streptomycin antibiotics; 1% L-glutamine; 10% fetal bovine serum (FBS) and 88% medium RPMI-1640, all purchased from Biological Industries Inc.) were seeded into a 96-well plate and allowed to attach for a day. The cells were consequently treated with the reagent tested at 10 different concentrations. Solutions/dispersions of the reagents were prepared either by dissolving 8 mg of the nonformulated reagent in 200 μL of THF or by dispersing 8 mg of formulated reagent in 200 μL of medium, with further diluting to obtain the different concentrations. A total of 20 μL of the resulting system were diluted with 180 μL of medium. Consequently, 10 μL of each final system were added to each well already containing 200 μL of the above solution of cells in the medium to give final concentration of up to 200 mg/L. Control wells were treated with similar amounts of THF or medium. After a standard of 3 days incubation at 37° C. in 5% CO2 atmosphere, MTT (0.1 mg in 20 μL) was added and the cells were incubated for additional 3 hours. The MTT solution was then removed, and the cells were dissolved in 200 μL isopropanol. The absorbance at 550 nm was measured by a Bio-Tek EL-800 microplate reader spectrophotometer. Each measurement was repeated at least 3×3 times, namely, three repeats per plate, all repeated at least 3 times on different days (9 repeats altogether). IC50 values were determined by a non-linear regression of a variable slope (four parameters) model.

OVCAR-3 = experiment: MTT cytotoxicity assay on OVCAR-3 cells; type: cell-based; conditions: administered without formulations, three days incubation
Protocol: as §1

OVCAR cancer cells = experiment: MTT cytotoxicity assay on OVCAR ovarian cells; type: cell-based
Protocol: as §1, with “After a standard of 3 days incubation at 37° C. in 5% CO2 atmosphere, MTT (0.1 mg in 20 μL) was added and the cells were incubated for additional 3 hours. The MTT solution was then removed, and the cells were dissolved in 200 μL isopropanol.” left out, “Each measurement was repeated at least 3×3 times, namely, three repeats per plate, all repeated at least 3 times on different days (9 repeats altogether).” left out

[1] = Hydrolysis measurements by 1H NMR / stability in water; type: physicochemical; conditions: 10% D2O added to [D8]THF solution
Protocol: Comparative hydrolysis measurements by ^1H NMR were carried by monitoring the integration of selected signals with time following addition of 10% D2O to [D8]THF solution of the complexes. The t1/2 value for isopropoxo hydrolysis for compound 4 was ca. 100 hours, markedly higher than the value previously reported for analogous complexes of two labile ligands obtained under similar conditions (ca. 5 hours).
NMR data were recorded using AMX-400 or AMX-500 MHz Bruker spectrometer. X-ray diffraction data were obtained with a Bruker SMART APEX CCD diffractometer, running the SMART software package. After collection, the raw data frames were integrated by the SAINT software package. The structures were solved and refined using the SHELXTL software package. Hydrolysis studies by NMR were performed using a solution of the complex in [D^8]THF and adding 10% D2O. The results were verified by including p-dinitrobenzene as an internal standard.

[2] = Particle size by dynamic light scattering; type: physicochemical; conditions: nanoformulated complex, 0.2 wt % dispersion in water
Protocol: The dry powder obtained at the end of the freeze-drying process was dispersed at 0.2% in distilled water. The sample was manually shaken for 15 seconds. Particle size distribution by volume was measured at room temperature by dynamic light scattering using a Nano-ZS Zetasizer (Malvern, UK). A 633 nm wavelength laser beam was used to illuminate the sample and the light scattering was detected at 173° angle by the Non-Invasive Back-Scatter (NIBS) technology. The advantages of the backscatter detection are: (a) Ability to measure particle size at high concentration; (b) Elimination of dust and impurity effect. Size measurements of the dispersion were performed in triplicate.

[3] = test system: multi-drug-resistant (MDR) cells HU-2; experiment: Cytotoxicity toward multi-drug-resistant HU-2 cells; type: cell-based; conditions: nanoformulated complex
[4] = administered without formulations

| SMILES | IC50 (HT-29 cancer cells; [4]) [nM] | maximal inhibition HT-29 (HT-29 cancer cells; [4]) [%] | IC50 (OVCAR-3) [nM] | maximal inhibition OVCAR-3 (OVCAR-3) [%] | IC50 (OVCAR cancer cells; nanoformulated complex, three days incubation) [nM] | cytotoxicity when measured directly on OVCAR-1 (OVCAR cancer cells; non-formulated, OVCAR-1 cells as printed) | hydrolysis observed by 1H NMR [1] | IC50 (HT-29 cancer cells; nanoformulated complex) [nM] | cytotoxicity when measured/administered directly on HT-29 (HT-29 cancer cells; non-formulated) | Mean particle size [2] [nm] | IC50 [3] [nM] |
| --- | --- | --- | --- | --- | --- | --- | --- | --- | --- | --- | --- |
| CC(C)(C)Oc1ccc2c(c1)CNCCN1Cc3cc(OC(C)(C)C)ccc3[O][V](=[O])([O]2)[O]c2ccc(OC(C)(C)C)cc2C1 [compound 9] | 2000 ± 400 | 99 | 1300 | 84 |  |  |  |  |  |  |  |
| Clc1cc(Cl)c2c(c1)CN1CCN3Cc4cc(Cl)cc(Cl)c4[O][Ti]([O]2)([O]c2c(Cl)cc(Cl)cc2C1)[O]c1c(Cl)cc(Cl)cc1C3 [compound 3] |  |  |  |  | 14000 ± 4000 | inactive | no substantial hydrolysis was observed for over a week | 12000 ± 2000 | inactive | 5.3 ± 0.3 | 800 ± 1000 |
| N.N.[Cl][Pt][Cl] [Cis-platin, reference compound] | 12200 ± 2300 | 90 | 8800 ± 2100 | 91 |  |  |  |  |  |  |  |
| [O]=[V]12[O]c3ccc(Cl)cc3CNCCN(Cc3cc(Cl)ccc3[O]1)Cc1cc(Cl)ccc1[O]2 [compound 7] | 3200 | 95 |  |  |  |  |  |  |  |  |  |
| COc1ccc2c(c1)CNCCN1Cc3cc(OC)ccc3[O][V](=[O])([O]2)[O]c2ccc(OC)cc2C1 [compound 8] | 700 ± 100 | 94 | 600 ± 200 | 85 |  |  |  |  |  |  |  |
| [O]=[V]12[O]c3ccccc3CNCCN(Cc3ccccc3[O]1)Cc1ccccc1[O]2 [compound 5] | 1900 ± 600 | 97 | 300 ± 100 | 88 |  |  |  |  |  |  |  |
| Cc1ccc2c(c1)CNCCN1Cc3cc(C)ccc3[O][V](=[O])([O]2)[O]c2ccc(C)cc2C1 [compound 6] | 2500 ± 700 | 98 | 300 ± 100 | 90 |  |  |  |  |  |  |  |
| Cc1cc(C)c2c(c1)CN1Cc3cc(C)cc(C)c3[O][V](=[O])([O]2)[O]c2c(C)cc(C)cc2C1 [compound 50] | 4600 ± 800 | 96 | 2800 ± 500 | 87 |  |  |  |  |  |  |  |
| [O]=[V]1[O]c2ccccc2CNCCNCc2ccccc2[O]1 [compound 63] | 5800 ± 300 | 97 | 4300 ± 1400 | 87 |  |  |  |  |  |  |  |
